Columns and labels:
[1] = MTT cytotoxicity assay, HL-60; assay type: cell-based, human; details: human, HL-60 leukemia cells; HL-60 leukemia, 48 h, MTT
Procedure: (§1) The cytotoxic activity of natural products against mammalian cells is an important point in the search for active compounds with biological activity. […] In order to confirm the selective and potent anti-trypanosomal activity of ML-2-2 and ML-2-3, we examined their cytotoxicity in a panel of human cell lines including two human fibroblastic and 8 human cancer-derived cell lines. Cells were seeded in 96-well microplates and incubated with ML-2-2 and ML-2-3 for 48 h at 37° C. in a 5% CO2 humidified incubator. The viabilities of cells were determined with the MTT (3-(4,5-dimethylthiazol-2-yl)-2-5-diphenyltetrazolium bromide) assay. The selectivity index (SI) was determined using the following equation: IC50 against human cells/IC50 against T. brucei. The IC50 values of ML-2-3 were higher than those of ML-2-2 in all the cell lines examined. […] The SI of ML-2-2 indicates values below 1.00 in most cell lines. On the other hand, SI values of ML-2-3 were much higher than those of ML-2-2 in all tested cell lines.

HL-60 (leukemia) = assay: MTT cytotoxicity assay, HL-60; assay type: cell-based, human; details: IC50 against HL-60 / IC50 against T. brucei
Procedure: as §1

[2] = MTT cytotoxicity assay, THP-1; assay type: cell-based, human; details: human, THP-1 leukemia cells; THP-1 leukemia, 48 h, MTT
Procedure: as §1

THP-1 (leukemia) = assay: MTT cytotoxicity assay, THP-1; assay type: cell-based, human; details: IC50 against THP-1 / IC50 against T. brucei
Procedure: as §1

[3] = MTT cytotoxicity assay, LoVo; assay type: cell-based, human; details: human, LoVo colon cancer cells; LoVo colon cancer, 48 h, MTT
Procedure: as §1

LoVo (colon cancer) = assay: MTT cytotoxicity assay, LoVo; assay type: cell-based, human; details: IC50 against LoVo / IC50 against T. brucei
Procedure: as §1

[4] = tested on: HF-19 (normal fibroblast); assay: MTT cytotoxicity assay, HF-19; assay type: cell-based, human
Procedure: as §1

[5] = MTT cytotoxicity assay, HF-19; assay type: cell-based, human; details: human, HF-19 normal fibroblast cells; HF-19 normal fibroblast, 48 h, MTT
Procedure: as §1

[6] = MTT cytotoxicity assay, HCT-15; assay type: cell-based, human; details: human, HCT-15 colon cancer cells; HCT-15 colon cancer, 48 h, MTT
Procedure: as §1

HCT-15 (colon cancer) = assay: MTT cytotoxicity assay, HCT-15; assay type: cell-based, human
Procedure: as §1

[7] = MTT cytotoxicity assay, Caco2; assay type: cell-based, human; details: human, Caco2 colon cancer cells; Caco2 colon cancer, 48 h, MTT
Procedure: as §1

Caco2 (colon cancer) = assay: MTT cytotoxicity assay, Caco2; assay type: cell-based, human; details: IC50 against Caco2 / IC50 against T. brucei
Procedure: as §1

Trypanosoma cells = assay: Multi-caspase apoptosis assay (FACS); assay type: cell-based, Trypanosoma brucei brucei; details: 5 μM
Procedure: The GUTat 3.1 strain of the bloodstream forms of T. b. brucei parasites was used for this study. Parasites were cultured in vitro according to the conditions established by Yabu et al, 1998.
Parasites were used when they reached a confluent concentration of 1×10^6 parasites/ml. Estimation of parasitemia was done with the Neubauer's counting chamber. Parasites were diluted to a concentration of 3×10^5 parasites/ml with HMI-9 medium and used for the various experiments.
This assay was performed to investigate multi-caspase signals as markers of apoptosis. Seeding and incubation of parasites were as for the other experiments. After 24 hours of incubation, 10% Caspase Reagent Working Solution was added to each well. The plate was incubated for 1 h at 37° C. under 5% CO2 in air. The plate was washed twice with 1× apoptosis wash buffer, centrifuged for 5-7 min and the supernatant aspirated off. Two hundred microlitres (200 μl) working solution of Caspase 7-AAD was added to each well and mixed thoroughly to re-suspend parasites. The plate was incubated for 10 min at room temperature and subjected to FACS analysis using, the Millipore guava easyCyte 5HT FACS machine for the sorting and estimation of apoptotic parasites according to the manufacturer's instructions.

[8] = MTT cytotoxicity assay, Jurkat; assay type: cell-based, human; details: human, Jurkat leukemia cells; Jurkat leukemia, 48 h, MTT
Procedure: as §1

Jurkat (leukemia) = assay: MTT cytotoxicity assay, Jurkat; assay type: cell-based, human; details: IC50 against Jurkat / IC50 against T. brucei
Procedure: as §1

[9] = MTT cytotoxicity assay, KATOIII; assay type: cell-based, human; details: human, KATOIII stomach cancer cells; KATOIII stomach cancer, 48 h, MTT
Procedure: as §1

KATOIII (stomach cancer) = assay: MTT cytotoxicity assay, KATOIII; assay type: cell-based, human; details: IC50 against KATOIII / IC50 against T. brucei
Procedure: as §1

various human cells = assay: MTT cytotoxicity, panel of human cell lines (summary); assay type: cell-based; details: IC50 against human cells / IC50 against Trypanosoma
Source text: ML-2-3 has low cytotoxicity on mammalian cells. The cytotoxicity of ML-2-3 is very low compared to the cytotoxicity of ML-2-2. The cytotoxicity of ML-2-2 and ML-2-3 on mammalian cells can be compared as IC50 value. The usefulness of the compounds for a therapeutic agent for mammals including humans can be compared by a selectivity index (SI). For a compound to be accepted as a useful therapeutic agent for mammals means that the compound should have high anti-trypanosomal activity but low cytotoxicity on mammals. The selectivity index (SI) is represented by an equation: IC50 of cytotoxicity on mammalian cells/IC50 of anti-trypanosomal activity. In particular, it is represented by an equation: IC50 against human cells/IC50 against Trypanosoma such as Trypanosoma brucei. […] IC50 (μM) of ML-2-3 against HF-19 and HCT-15 is more than 50, which means that ML2-3 is non-toxic at the highest assayed dose in HF-19 and HCT-15. […]
The cytotoxic activity of natural products against mammalian cells is an important point in the search for active compounds with biological activity. […] The viabilities of cells were determined with the MTT (3-(4,5-dimethylthiazol-2-yl)-2-5-diphenyltetrazolium bromide) assay. The selectivity index (SI) was determined using the following equation: IC50 against human cells/IC50 against T. brucei. […]

SMILES: COc1cc(/C=C2/C(=O)O[C@]34C=C[C@@H]5C(C(=O)O)=CO[C@H](O[C@@H]23)[C@@H]54)ccc1O [ML-2-3, (3aS,4aR,4a^1S,7aS,9aS,3E)-3-(4-hydroxy-3-methoxybenzylidene)-2-oxo-2,3,3a,4a,4a^1,7a-hexahydro-1,4,5-trioxadicyclopenta[a,hi]indene-7-carboxylic acid]
- IC50 at 48 h [1]: 25.5 µM
- SI (selectivity index) (HL-60 (leukemia)): 6.81
- IC50 at 48 h [2]: 15.4 µM
- SI (selectivity index) (THP-1 (leukemia)): 4.11
- IC50 at 48 h [3]: 30.4 µM
- SI (selectivity index) (LoVo (colon cancer)): 8.10
- cytotoxicity (in words) ([4]; HF-19, highest assayed dose): non-toxic at the highest assayed doses
- SI (selectivity index) ([4]; IC50 against HF-19 / IC50 against T. brucei): >13.33
- IC50 at 48 h [5]: > 50 µM
- IC50 at 48 h [6]: > 50 µM
- cytotoxicity (in words) (HCT-15 (colon cancer); HCT-15, highest assayed dose): non-toxic at the highest assayed doses
- SI (selectivity index) (HCT-15 (colon cancer); IC50 against HCT-15 / IC50 against T. brucei): >13.33
- IC50 at 48 h [7]: 44.6 µM
- SI (selectivity index) (Caco2 (colon cancer)): 11.88
- late-apoptosis cells (Trypanosoma cells; control cells 0.40%): 4.2%
- mid-apoptosis cells (Trypanosoma cells; control cells 1.05%): 7%
- IC50 at 48 h [8]: 12.4 µM
- SI (selectivity index) (Jurkat (leukemia)): 3.31
- IC50 at 48 h [9]: 24.8 µM
- SI (selectivity index) (KATOIII (stomach cancer)): 6.62
- selectivity index (SI), range over the human cell lines (various human cells): ≥ 3.2 to more than 13
